This is an account of results in patent US20100074955A1, “Combination of NMDA-Receptor Ligand and a Compound With 5-HT6 Receptor Affinity” (LABORATORIOS DEL DR. ESTEVE, S.A., priority 2006, published 2010).

This experiment concerns adult male Lister Hooded rats. The experiment is described as follows: Test of novel object discrimination in rats. In kind it is in vivo, rat. Conditions: memantine alone 5, 10, 15 and 20 mg/kg i.p. vs vehicle, 20 minutes before trial, 4 hour inter-trial interval, FIG. 1. The method, then:
Adult male Lister Hooded rats (Charles River, UK) weighing 200-350 g at the start of the experiment were housed in groups of four on a 12:12 h light:dark cycle (lights on at 07:00 h). Food and water were available ad libitum throughout the study, and the room temperature (21±2° C.) and relative humidity (45-65%) were kept constant. In one experiment, rats received i.p. injections (2 ml/kg, −20 minutes prior to the familiarisation trial) of memantine (n=12) at 5, 10, 15 and 20 mg/kg compared with vehicle (0.5% methylcellulose in saline, 2 ml/kg), such that all rats received all doses of the compound in a random order with each behavioural test occurring at seven day intervals.
In the combination study, a group of rats (n=12 each) received injection of a sub-effective dose of compound 841 (1 mg/kg i.p.) or vehicle (0.5% methylcellulose in saline, 2 ml/kg), either alone or combined with memantine (5 mg/kg). Each drug combination was administered to all rats in the group over a period of 4 weeks in a random order using a seven day behavioural test interval. […]

As for `CC12CC3CC(C)(C1)CC(N)(C3)C2` [memantine, 1-amino-3,5-dimethyladamantane], the “discrimination of a novel object against a familiar object (time spent exploring each object)” value is given as “high amounts of said compound are necessary for rats to discriminate a novel object against a familiar object”.
